Patent publication US7776862B2, “Pyridyl and phenyl substituted piperazine-piperidines with CXCR3 antagonist activity” (Schering Corporation, priority 2005, dated 2010)

biological target: T1, human CXCR3 (N-delta 4) (Homo sapiens, UniProt P49682); assay: Human CXCR3 (N-delta 4) scintillation proximity assay (SPA), [125I] IP-10 binding; settings: IC50 rating; Ba/F3-hCXCR3 (N-delta 4) membranes, 25 pM [125I] IP-10
T1 construct: CD8 leader; Flag tag; expressed in transfected cells; membranes used
T1 sequence (P49682 5-368 limits assumed): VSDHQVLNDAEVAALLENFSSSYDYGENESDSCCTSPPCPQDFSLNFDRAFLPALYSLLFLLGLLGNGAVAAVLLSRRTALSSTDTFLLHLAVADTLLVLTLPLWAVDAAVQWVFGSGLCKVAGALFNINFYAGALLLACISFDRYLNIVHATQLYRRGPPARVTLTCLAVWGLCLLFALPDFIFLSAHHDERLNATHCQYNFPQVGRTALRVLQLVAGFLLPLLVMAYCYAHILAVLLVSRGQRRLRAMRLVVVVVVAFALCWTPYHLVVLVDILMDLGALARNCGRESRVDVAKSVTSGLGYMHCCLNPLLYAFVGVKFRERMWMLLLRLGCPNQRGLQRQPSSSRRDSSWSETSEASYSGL
Description: The inventive compounds can readily be evaluated to determine activity at the CXCR3 receptors by known methods, such as, for example, development of a human CXCR3 (N-delta 4) Binding Assay.
Cloning and expression of human CXCR3 (N-delta 4):
The DNA encoding human CXCR3 was cloned by PCR using human genomic DNA (Promega, Madison, Wis.) as a template. The PCR primers were designed based on the published sequence of human orphan receptor GPR9 (1) with incorporated restriction sites, a Kozak consensus sequence, CD8 leader and Flag tag. The PCR product was subcloned into the mammalian expression vector pME18Sneo, a derivative of the SR-alpha expression vector (designated as pME18Sneo-hCXCR3 (N-delta 4).
IL-3-dependent mouse pro-B cells Ba/F3 were transfected by electroporation in 0.4 ml Dulbecco's PBS containing 4×10^6 cells with 20 μg of pME18Sneo-hCXCR3 (N-delta 4) plasmid DNA. Cells were pulsed at 400 Volts, 100 OHMs, 960 μFd. The transfected cells were under selection with 1 mg/ml G418 (Life Technologies, Gaithersburg, Md.). […] IP-10 (NEN Life Science Products, Boston, Mass.).
Preparation of Ba/F3-hCXCR3 (N-delta 4) membranes:
Ba/F3 cells expressing human CXCR3 (N-delta 4) were pelleted and resuspended in the lysis buffer containing 10 mM HEPES, pH 7.5 and Complete® protease inhibitors (1 tablet per 100 ml) (Boehringer Mannheim, Indianapolis, Ind.) at a cell density of 20×10^6 cells per ml. […] Large cellular debris was removed by centrifugation at 1,000×g. Cell membrane in the supernatant was sedimented at 100,000×g. The membrane was resuspended in the lysis buffer supplemented with 10% sucrose and stored at −80° C. Total protein concentration of the membrane was determined by BCA method from Pierce (Rockford, Ill.).
Human CXCR3 (N-delta 4) scintillation proximity assay (SPA):
The beads were spun down, washed once, resuspended in the binding buffer and transferred to a 96-well Isoplate (Wallac, Gaithersburg, Md.). […] IP-10 with tested compounds in a series of titration were added to start the reaction.

IC50 [nM] | Compound
> 100 | O=C(NCc1cccc(F)c1)c1cnc(N2CCN(C3CCN(Cc4ccc(Cl)cc4Cl)CC3)CC2)c(Cl)c1 [compound 1]
> 100 | N#Cc1ccc(C(=O)N2CCC(N3CCN(c4ncc(C(=O)NCc5ccc(C(F)(F)F)cc5)cc4Cl)CC3)CC2)cc1 [compound 2]
> 100 | O=C(NC1CCc2ccccc21)c1cnc(N2CCN(C3CCN(Cc4ccc(Cl)cc4)CC3)CC2)c(Br)c1 (centres unmarked) [compound 3]
> 100 | O=C(NCc1ccc(F)cc1)c1cnc(N2CCN(C3CCN(Cc4ccc(Br)cc4F)CC3)CC2)c(Cl)c1 [compound 4]
> 100 | O=C(NCc1ccccc1)c1cnc(N2CCN(C3CCN(Cc4ccc(F)cc4)CC3)CC2)c(Cl)c1 [compound 5]
> 100 | N#Cc1ccc(CN2CCC(N3CCN(c4ncc(C(=O)NCc5ccccc5F)cc4Cl)CC3)CC2)cc1 [compound 6]
> 100 | O=C(NCc1ccc(F)cc1)c1cnc(N2CCN(C3CCN(Cc4ccc(Cl)cc4Cl)CC3)CC2)c(Cl)c1 [compound 7]
> 100 | O=C(NCc1cccc(F)c1)c1cnc(N2CCN(C3CCN(Cc4ccc(F)cc4F)CC3)CC2)c(Cl)c1 [compound 8]
> 100 | CC1(C)C2CCC(CNC(=O)c3cnc(N4CCN(C5CCN(Cc6ccc(Cl)cc6)CC5)CC4)c(Br)c3)C1C2 (centres unmarked) [compound 9]
> 100 | O=C(NCc1ccc(F)cc1F)c1cnc(N2CCN(C3CCN(Cc4ccc(Cl)cc4Cl)CC3)CC2)c(Cl)c1 [compound 10]
> 100 | O=C(NCc1ccc(Br)cc1)c1cnc(N2CCN(C3CCN(Cc4ccc(Cl)cc4Cl)CC3)CC2)c(Cl)c1 [compound 11]
> 100 | O=C(NCc1cc(Cl)cc(Cl)c1)c1cnc(N2CCN(C3CCN(Cc4ccc(F)cc4F)CC3)CC2)c(Cl)c1 [compound 12]
> 100 | O=C(NCc1ccc(Cl)cc1)c1cnc(N2CCN(C3CCN(Cc4ccc(Cl)cc4Cl)CC3)CC2)c(Cl)c1 [compound 13]
> 100 | O=C(NCc1cccc(F)c1)c1cnc(N2CCN(C3CCN(Cc4ccc(Br)cc4F)CC3)CC2)c(Cl)c1 [compound 14]
> 100 | N#Cc1ccc(C(=O)N2CCC(N3CCN(c4ncc(C(=O)NCCOc5ccccc5)cc4Cl)CC3)CC2)cc1 [compound 15]
> 100 | O=C(NCCOc1ccccc1)c1cnc(N2CCN(C3CCN(Cc4ccc(F)cc4F)CC3)CC2)c(Cl)c1 [compound 16]
> 100 | O=C(NCc1ccc(Cl)c(Cl)c1)c1ccc(N2CCN(C3CCN(Cc4ccc(Cl)cc4)CC3)CC2)c(Cl)c1 [compound 17]
> 100 | O=C(NC1CCCC1)c1cnc(N2CCN(C3CCN(Cc4ccc([N+](=O)[O-])cc4)CC3)CC2)c(Cl)c1 [compound 18]
> 100 | N#Cc1ccc(C(=O)N2CCC(N3CCN(c4ncc(C(=O)NCc5ccc(F)cc5)cc4Cl)CC3)CC2)cc1 [compound 19]

IC50 [nM] | Compound
> 100 | O=C(NCc1ccc(F)cc1F)c1cnc(N2CCN(C3CCN(Cc4ccc(Br)cc4F)CC3)CC2)c(Cl)c1 [compound 20]
> 100 | N#Cc1ccc(CN2CCC(N3CCN(c4ncc(C(=O)NCc5ccccc5)cc4Cl)CC3)CC2)cc1 [compound 21]
> 100 | O=C(NC1CCCC1)c1cnc(N2CCN(C3CCN(Cc4ccc(Cl)c(F)c4)CC3)CC2)c(Cl)c1 [compound 22]
> 100 | O=C(NCCOc1ccccc1)c1cnc(N2CCN(C3CCN(Cc4ccc(Br)cc4F)CC3)CC2)c(Cl)c1 [compound 23]
> 100 | O=C(NCc1cccc(Cl)c1)c1cnc(N2CCN(C3CCN(Cc4ccc(Cl)c(F)c4)CC3)CC2)c(Cl)c1 [compound 24]
> 100 | O=C(NCc1ccc(F)c(F)c1)c1cnc(N2CCN(C3CCN(Cc4ccc(Cl)cc4Cl)CC3)CC2)c(Cl)c1 [compound 25]
> 100 | O=C(NCc1ccc(Cl)cc1Cl)c1cnc(N2CCN(C3CCN(Cc4ccc(Br)cc4F)CC3)CC2)c(Cl)c1 [compound 26]
> 100 | O=C(NCc1ccc(Cl)cc1F)c1cnc(N2CCN(C3CCN(Cc4ccc(Br)cc4F)CC3)CC2)c(Cl)c1 [compound 27]
> 100 | O=C(NCc1cccc(Cl)c1)c1cnc(N2CCN(C3CCN(Cc4ccc(F)cc4F)CC3)CC2)c(Cl)c1 [compound 28]
> 100 | O=C(NCc1cccc(F)c1)c1cnc(N2CCN(C3CCN(Cc4ccc(F)cc4)CC3)CC2)c(Cl)c1 [compound 29]
> 100 | COc1ccc(CN2CCC(N3CCN(c4ncc(C(=O)NCc5cccc(F)c5)cc4Cl)CC3)CC2)cc1 [compound 30]
> 100 | O=C(NCc1ccc(C(F)(F)F)cc1)c1cnc(N2CCN(C3CCN(Cc4ccc(Br)cc4)CC3)CC2)c(Cl)c1 [compound 31]
> 100 | CC(c1ccc(C#N)cc1)N1CCC(N2CCN(c3ncc(C(=O)NCc4ccc(Cl)c(Cl)c4)cc3Cl)CC2)CC1 (centres unmarked) [compound 32]
> 100 | O=C(NCc1ccc(F)c(Cl)c1)c1cnc(N2CCN(C3CCN(Cc4ccc(Br)cc4F)CC3)CC2)c(Cl)c1 [compound 33]
> 100 | O=C(NCc1ccc(F)cc1)c1cnc(N2CCN(C3CCN(Cc4ccc(F)cc4F)CC3)CC2)c(Cl)c1 [compound 34]
> 100 | O=C(NCCOc1ccccc1)c1cnc(N2CCN(C3CCN(Cc4ccc(F)c(F)c4)CC3)CC2)c(Cl)c1 [compound 35]
> 100 | O=C(NCc1ccc(Br)cc1)c1cnc(N2CCN(C3CCN(Cc4ccc(Br)cc4F)CC3)CC2)c(Cl)c1 [compound 36]
> 100 | O=C(NC1CCCC1)c1cnc(N2CCN(C3CCN(Cc4ccc(Br)cc4)CC3)CC2)c(Cl)c1 [compound 37]
> 100 | O=C(NCCOc1ccccc1)c1cnc(N2CCN(C3CCN(Cc4ccc(Cl)cc4Cl)CC3)CC2)c(Cl)c1 [compound 38]

IC50 [nM] | Compound
> 100 | O=C(NCc1ccccc1)c1cnc(N2CCN(C3CCN(Cc4ccc(Br)cc4)CC3)CC2)c(Cl)c1 [compound 39]
> 100 | N#Cc1ccc(CN2CCC(N3CCN(c4ncc(C(=O)NCc5cc(Cl)cc(Cl)c5)cc4Cl)CC3)CC2)cc1 [compound 40]
> 100 | O=C(NCc1ccc(F)cc1F)c1cnc(N2CCN(C3CCN(Cc4ccc(F)cc4F)CC3)CC2)c(Cl)c1 [compound 41]
> 100 | COc1ccc(CN2CCC(N3CCN(c4ncc(C(=O)NCc5ccc(C(F)(F)F)cc5)cc4Cl)CC3)CC2)cc1 [compound 42]
> 100 | O=C(NCc1cccc(Cl)c1)c1cnc(N2CCN(C3CCN(Cc4ccc(Br)cc4)CC3)CC2)c(Cl)c1 [compound 43]
> 100 | COc1ccc(CN2CCC(N3CCN(c4ncc(C(=O)NCc5cc(Cl)cc(Cl)c5)cc4Cl)CC3)CC2)cc1 [compound 44]
> 100 | CC(c1ccc(Cl)cc1)N1CCC(N2CCN(c3ncc(C(=O)NCc4ccc(Cl)c(Cl)c4)cc3Cl)CC2)CC1 (centres unmarked) [compound 45]
> 100 | CC(c1ccc(Cl)cc1)N1CCC(N2CCN(c3ncc(C(=O)NCc4ccc(F)c(F)c4)cc3Cl)CC2)CC1 (centres unmarked) [compound 46]
> 100 | N#Cc1ccc(CN2CCC(N3CCN(c4ncc(C(=O)NCc5cccc(Cl)c5)cc4Cl)CC3)CC2)cc1 [compound 47]
> 100 | O=C(NCc1ccc(Cl)cc1)c1cnc(N2CCN(C3CCN(Cc4ccc(Br)cc4F)CC3)CC2)c(Cl)c1 [compound 48]
> 100 | O=C(NCCOc1ccccc1)c1cnc(N2CCN(C3CCN(Cc4ccc(Cl)c(Cl)c4)CC3)CC2)c(Cl)c1 [compound 49]
> 100 | COc1ccc(CN2CCC(N3CCN(c4ncc(C(=O)NCc5ccc(F)cc5)cc4Cl)CC3)CC2)cc1 [compound 50]
> 100 | N#Cc1ccc(C(=O)N2CCC(N3CCN(c4ncc(C(=O)NCc5ccc(F)c(F)c5)cc4Cl)CC3)CC2)cc1 [compound 51]
> 100 | O=C(NCc1cc(Cl)cc(Cl)c1)c1cnc(N2CCN(C3CCN(Cc4ccc(Cl)cc4)CC3)CC2)c(Cl)c1 [compound 52]
> 100 | O=C(NCc1ccccc1)c1cnc(N2CCN(C3CCN(Cc4ccc(F)c(F)c4)CC3)CC2)c(Cl)c1 [compound 53]
> 100 | COc1ccc(CN2CCC(N3CCN(c4ncc(C(=O)NCc5cccc(Cl)c5)cc4Cl)CC3)CC2)cc1 [compound 54]
> 100 | O=C(NCc1ccc(F)cc1)c1cnc(N2CCN(C3CCN(Cc4ccc(F)cc4)CC3)CC2)c(Cl)c1 [compound 55]
> 100 | COc1ccc(CN2CCC(N3CCN(c4ncc(C(=O)NCc5ccc(F)cc5F)cc4Cl)CC3)CC2)cc1 [compound 56]
